Measurements taken from US11530186B2, “Inhibitors for the β-catenin / T-cell factor protein-protein interaction” (H. LEE MOFFITT CANCER CENTER AND RESEARCH INSTITUTE, INC., priority 2018, dated 2022).
Where two headings read alike, the source gives them in different places.

Target: T1, β-catenin/Tcf protein-protein interaction (Homo sapiens, UniProt P35222)
T1 construct: Wild-type β-catenin (residues 138-781) were cloned into a pET-28b vector; 6×histidine (C); made in house; host or cells: E. coli BL21 DE3
T1 sequence (P35222 138-781): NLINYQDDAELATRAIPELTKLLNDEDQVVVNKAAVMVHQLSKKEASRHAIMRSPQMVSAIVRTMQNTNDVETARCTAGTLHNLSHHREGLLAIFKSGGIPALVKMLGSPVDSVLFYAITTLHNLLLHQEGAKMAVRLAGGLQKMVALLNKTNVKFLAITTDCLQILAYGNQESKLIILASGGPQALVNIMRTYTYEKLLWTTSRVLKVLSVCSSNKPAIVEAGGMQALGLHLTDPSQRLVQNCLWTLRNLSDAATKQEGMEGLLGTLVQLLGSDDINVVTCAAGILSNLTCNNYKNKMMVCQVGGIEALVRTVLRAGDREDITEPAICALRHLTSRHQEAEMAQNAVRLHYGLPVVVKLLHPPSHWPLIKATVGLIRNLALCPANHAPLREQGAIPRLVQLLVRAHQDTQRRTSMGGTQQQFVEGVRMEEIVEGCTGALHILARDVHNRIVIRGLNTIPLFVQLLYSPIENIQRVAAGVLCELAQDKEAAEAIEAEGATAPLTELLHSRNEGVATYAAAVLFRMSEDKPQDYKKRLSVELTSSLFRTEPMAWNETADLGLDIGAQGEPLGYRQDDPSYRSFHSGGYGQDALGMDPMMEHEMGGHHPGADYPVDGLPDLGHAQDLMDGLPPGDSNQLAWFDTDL
Experiment: FP competitive inhibition assay
Type: binding
Experimental: Protein Expression and Purification. Wild-type β-catenin (residues 138-781) were cloned into a pET-28b vector carrying a C-terminal 6×histidine (Novagen) and transformed into E. coli BL21 DE3 (Novagen). Cells were cultured in LB medium with 30 μg/mL kanamycin until the OD600 was approximately 0.8, and then protein expression was induced with 400 μM of IPTG at 20° C. overnight. Cells were lysed by sonication. The proteins were purified by Ni-NTA affinity chromatography (30210, Qiagen) and dialyzed against a buffer containing 20 mM of Tris (pH 8.8), 100 mM NaCl, 10% glycerol, and 3 mM DTT. The purity of β-catenin was set to >95% as determined by SDS-PAGE gel analysis. Native non-denaturing gel electrophoresis experiment and the thermal-shift assay on an iCycler iQ Real Time Detection System (Bio-Rad) were performed for each purified protein. In the thermal shift assay, protein unfolding was evaluated through measuring the fluorescence changes of fluorescent dye Sypro Orange with purified β-catenin proteins. A temperature increment of 1° C./min was applied to monitor protein stability and detect protein aggregation. CD spectra were measured on a J-815 spectropolarimeter (Jasco). All spectra were recorded using a 1 mm path-length quartz cell. The CD spectra were averaged over three scans, and the wavelength was scanned from 260 to 190 nm in step of 1 nm. All spectra were recorded at room temperature, and the baseline was corrected by subtracting the CD spectra of a blank control containing all of the substances except protein. Samples were prepared at a concentration around 1-5 μM in a buffer of 10 mM potassium phosphate and 100 mM potassium fluoride at pH 7.0 to ensure that the transmission of light through the sample was not restricted. All proteins were stable, and no aggregation was observed under storage or assay conditions. Proteins were aliquoted and stored at −80° C. C-terminally fluorescein-labeled human Tcf4 (residues 7-51) was synthesized and HPLC purified with purity >95%. The structures were validated by LC/MS (liquid chromatography/mass spectrometry).
FP Assays. The procedures for the FP competitive inhibition assays have been described previously (Zhang, M.; Huang, Z.; Yu, B.; Ji, H. New homogeneous high-throughput assays for inhibitors of β-catenin/Tcf protein-protein interactions Anal. Biochem. 2012, 424, 57-63; Zhang, M.; Catrow, J. L.; Ji, H. High-throughput selectivity assays for small-molecule inhibitors of β-catenin/T-cell factor protein-protein interactions. ACS Med. Chem. Lett. 2013, 4, 306-311). Briefly, all of the tested compounds were prepared as 10 mM DMSO stocks. In the primary screen, the concentrations of the compounds and DMSO were set to 50 μM and 1% (v/v). Only the compounds which FP signal decreases were greater than 50% in the single-point β-catenin/Tcf assay were evaluated by counter screen. […] In the FP competitive inhibition assay, 10 nM human β-catenin and 2.5 nM of C-terminally fluorescein-labeled human Tcf4 were incubated in an assay buffer of 137 mM NaCl, 2.7 mM KCl, 10 mM Na2HPO4, 2 mM KH2PO4, 100 μg/mL of bovine γ-globulin, and 0.01% Triton-X100 for 15 min at 4° C. Bovine γ-globulin and Triton-X100 were included in the assay buffer to decrease the likelihood of compound acting by aggregate formation. Different concentrations of the tested compounds in the assay buffer were added to each test plate to make a final volume of 100 μL. Each assay plate was covered black and gently mixed on an orbital shaker at 4° C. for 1.5 h to reach equilibrium before the polarization values were read. The IC50 value was determined by nonlinear least-square analysis of GraphPad Prism 5.0. The Ki values were derived (Nikolovska-Coleska, Z.; Wang, R.; Fang, X.; Pan, H.; Tomita, Y.; Li, P.; Roller, P. P.; Krajewski, K.; Saito, N. G.; Stuckey, J. A.; Wang, S. Development and optimization of a binding assay for the XIAP BIR3 domain using fluorescence polarization. Anal. Biochem. 2004, 332, 261-273). […]

[1] = Assay 1, mean ± SD (n = 3), read-out: Ki ± SD, Assay 1
[2] = Assay 2, mean ± SD (n = 3), read-out: Ki ± SD, Assay 2
[3] = Assay 3, mean ± SD (n = 3), read-out: Ki ± SD, Assay 3

Row | Compound | Ki [1] | Ki [2] | Ki [3] | Ki (Assay 4, mean ± SD (n = 3), read-out: Ki ± SD, Assay 4)
1 | O=C(O)c1ccc2c(c1)c(CCc1ccc(Cl)cc1)c(CCc1nc3cc(Cl)ccc3s1)n2CCc1nn[nH]n1 [Compound 30, 1-(2-(2H-tetrazol-5-yl)ethyl)-2-(2-(5-chlorobenzo[d]thiazol-2-yl)ethyl)-3-(4-chlorophenethyl)-1H-indole-5-carboxylic acid] | 1.1 ± 0.27 µM | 1.6 ± 0.63 µM | 2.5 ± 1.5 µM | –
2 | COc1ccc2sc(CCc3c(CCc4ccc(Cl)cc4)c4cc(C(=O)NCc5ccccc5Cl)ccc4n3CCc3nn[nH]n3)nc2c1 [Compound 51, 1-(2-(2H-tetrazol-5-yl)ethyl)-N-(2-chlorobenzyl)-3-(4-chlorophenethyl)-2-(2-(5-methoxybenzo[d]thiazol-2-yl)ethyl)-1H-indole-5-carboxamide] | 3.6 ± 0.6 µM | 4.8 ± 0.84 µM | – | –
3 | COc1ccc2sc(CCc3c(CCc4ccc(Cl)cc4)c4cc(C(=O)NCC(O)CO)ccc4n3CCc3nn[nH]n3)nc2c1 (stereo not shown) [Compound 66, 1-(2-(2H-tetrazol-5-yl)ethyl)-3-(4-chlorophenethyl)-N-(2,3-dihydroxypropyl)-2-(2-(5-methoxybenzo[d]thiazol-2-yl)ethyl)-1H-indole-5-carboxamide] | 3.7 ± 0.19 µM | 32 ± 3.8 µM | – | –
4 | COc1ccc2sc(CCc3c(CCc4ccc(Cl)cc4)c4cc(C(=O)NCC5CCOCC5)ccc4n3CCc3nn[nH]n3)nc2c1 [Compound 64, 1-(2-(2H-tetrazol-5-yl)ethyl)-3-(4-chlorophenethyl)-2-(2-(5-methoxybenzo[d]thiazol-2-yl)ethyl)-N-((tetrahydro-2H-pyran-4-yl)methyl)-1H-indole-5-carboxamide] | 5.4 ± 0.76 µM | 9.5 ± 1.5 µM | – | –
5 | COc1ccc2sc(CCc3c(CCc4ccc(Cl)cc4)c4cc(C(=O)NCCOc5ccc(Cl)cc5)ccc4n3CCc3nn[nH]n3)nc2c1 [Compound 50, 1-(2-(2H-tetrazol-5-yl)ethyl)-3-(4-chlorophenethyl)-N-(2-(4-chlorophenoxy)ethyl)-2-(2-(5-methoxybenzo[d]thiazol-2-yl)ethyl)-1H-indole-5-carboxamide] | 3.2 ± 0.28 µM | – | – | –
6 | O=C(O)c1cccc(CCc2nn[nH]n2)c1 [Compound 1, 3-(2-(2H-tetrazol-5-yl)ethyl)benzoic acid] | 990 ± 36 µM | – | – | –
7 | Cc1ccc(CCc2c(CCc3nc4ccccc4s3)n(CCC(=O)O)c3ccc(C(=O)O)cc23)cc1 [Compound 40, 2-(2-(benzo[d]thiazol-2-yl)ethyl)-1-(2-carboxyethyl)-3-(4-methylphenethyl)-1H-indole-5-carboxylic acid] | 5.8 ± 1.3 µM | – | – | –
8 | COCCOc1ccc2sc(CCc3c(CCc4ccc(Cl)cc4)c4cc(C(=O)NCc5ccc(Cl)cc5)ccc4n3CCc3nn[nH]n3)nc2c1 [Compound 46, 1-(2-(2H-tetrazol-5-yl)ethyl)-N-(4-chlorobenzyl)-3-(4-chlorophenethyl)-2-(2-(5-(2-methoxy-ethoxy)benzo[d]thiazol-2-yl)ethyl)-1H-indole-5-carboxamide] | 1.3 ± 0.4 µM | – | – | –
9 | CNC(=O)c1ccc2c(c1)c(CCc1ccc(C)cc1)c(-c1ccsc1)n2CCc1nn[nH]n1 [Compound 89, 1-(2-(2H-tetrazol-5-yl)ethyl)-N-methyl-3-(4-methylphenethyl)-2-(thiophen-3-yl)-1H-indole-5-carboxamide] | > 24 µM | – | – | –
10 | COc1ccc2sc(CCc3c(CCc4ccc(Cl)cc4)c4cc(C(=O)N[C@H]5CC[C@H](N)CC5)ccc4n3CCc3nn[nH]n3)nc2c1 [Compound 69, (1r,4r)-4-(1-(2-(2H-tetrazol-5-yl)ethyl)-3-(4-chlorophenethyl)-2-(2-(5-methoxybenzo[d]thiazol-2-yl)ethyl)-1H-indole-5-carboxamido)cyclohexan-1-aminium] | > 24 µM | > 22 µM | – | –
11 | O=C(O)CCn1c(CCc2nc3ccccc3[nH]2)c(CCc2ccc(Cl)cc2)c2cc(C(=O)O)ccc21 [Compound 41, 2-(2-(1H-benzo[d]imidazol-2-yl)ethyl)-1-(2-carboxyethyl)-3-(4-chlorophenethyl)-1H-indole-5-carboxylic acid] | 36 ± 9.5 µM | 10 ± 2.2 µM | – | –
12 | O=C(O)CCn1c(CCc2nc3ccccc3s2)c(CCc2ccc(Cl)cc2)c2cc(C(=O)O)ccc21 [Compound 39, 2-(2-(benzo[d]thiazol-2-yl)ethyl)-1-(2-carboxyethyl)-3-(4-chlorophenethyl)-1H-indole-5-carboxylic acid] | 7.9 ± 1.5 µM | 1.4 ± 0.45 µM | – | –

More lines, now with the values ahead:

Row | Ki [1] | Ki [2] | Ki [3] | Ki (Assay 4, mean ± SD (n = 3), read-out: Ki ± SD, Assay 4) | Compound
13 | 62 ± 12 µM | – | – | – | O=C(O)c1ccc2c(c1)c(CCc1ccccc1)cn2CCc1nn[nH]n1 [Compound 5, 1-(2-(2H-tetrazol-5-yl)ethyl)-3-phenethyl-1H-indole-5-carboxylic acid]
14 | > 51 µM | – | – | – | O=C(O)c1ccc2c(c1)c(CCc1ccc(N3CCOCC3)cc1)cn2CCc1nn[nH]n1 [Compound 19, 1-(2-(2H-tetrazol-5-yl)ethyl)-3-(4-morpholinophenethyl)-1H-indole-5-carboxylic acid]
15 | 31 ± 5.9 µM | – | – | – | O=C(O)c1ccc2c(c1)c(CCc1ccc(C(F)(F)F)cc1)cn2CCc1nn[nH]n1 [Compound 9, 1-(2-(2H-tetrazol-5-yl)ethyl)-3-(4-(trifluoromethyl)phenethyl)-1H-indole-5-carboxylic acid]
16 | 6.6 ± 0.28 µM | 7.6 ± 0.65 µM | 10 ± 0.95 µM | 5.7 ± 1.1 µM | O=C(O)c1ccc2c(c1)c(CCC1CCOCC1)cn2CCc1nn[nH]n1 [Compound 21, 1-(2-(2H-tetrazol-5-yl)ethyl)-3-(2-(tetrahydro-2H-pyran-4-yl)ethyl)-1H-indole-5-carboxylic acid]
17 | 32 ± 3.9 µM | – | – | – | Cc1ccc(CCc2cn(CCc3nn[nH]n3)c3ccc(C(=O)O)cc23)nc1 [Compound 17, 1-(2-(2H-tetrazol-5-yl)ethyl)-3-(2-(5-methylpyridin-2-yl)ethyl)-1H-indole-5-carboxylic acid]
18 | 20 ± 1.1 µM | – | – | – | Cc1ccc(CCc2c(-c3ccncc3)n(CCc3nn[nH]n3)c3ccc(C(=O)O)cc23)cc1 [Compound 83, 1-(2-(2H-tetrazol-5-yl)ethyl)-3-(4-methylphenethyl)-2-(pyridin-4-yl)-1H-indole-5-carboxylic acid]
19 | 18 ± 1.6 µM | 18 ± 0.67 µM | – | – | O=C(O)c1ccc2c(c1)c(CCc1ccncc1)cn2CCc1nn[nH]n1 [Compound 16, 1-(2-(2H-tetrazol-5-yl)ethyl)-3-(2-(pyridin-4-yl)ethyl)-1H-indole-5-carboxylic acid]
